“Also recorded” adds a separate entry of the source. Where a SMILES comes first, the peptide text is derived from it. The star is where a group is joined. Cbz = O=C(OCc1ccccc1)*; CH2F = FC*
Experiments:
[1] = tested on: SW1271 cells; test: Click reaction and in-gel fluorescence of treated SW1271 cells; format: cell-based; settings: 100 µM, 4 h
Protocol: Leveraging the alkyne handle, a click reaction was performed with an azide containing sulfo-cyanine5 fluorophore (Cy5) to visualize proteins within the cells that were conjugated to either the fluoromethylketone 34 or the chloromethylketone 37. Cells were pretreated with either analog then harvested and washed to removed unreacted inhibitor. The cells were then lysed and the click reaction was performed on lysates. […] Further evaluation using proteomic profiling is warranted to gain a quantitative understanding on the potential for non-specificity at off-target cysteines.
Cells were treated with 100 µM inhibitor or DMSO for 4 h before being washed, scraped, and lysed in 200 µL of lysis buffer (1× PBS, 1% v/v Triton X-100, 0.1% w/v SDS, 1X HALT) for 30 min on ice with vigorous vortexing every 10 min. Samples were then pelleted at 17,000× g for 10 min before collecting the supernatant and measuring concentration using BCA. Samples were normalized to 2 mg/mL and stored at −80 °C overnight. The following day, samples were thawed. While thawing, a click cocktail was prepared (for each sample, the cocktail consists of: 3 µL of 1.7 mM THPTA in 1:4 tBuOH/DMSO, 1 µL of 50 mM CuSO4 in water, 1 µL of 1.25 mM Cy5-N3 in DMSO, and 1 µL of 50 mM TCEP in water freshly prepared). […] The samples were then analyzed by SDS-PAGE and imaged on a Licor Odyssey and subsequently Coomassie stained.

[2] = tested on: KMS11 cells; test: KMS cell proliferation assay (IncuCyte); format: cell-based; settings: 100 µM; 24, 48, 72 and 96 h
Protocol: (§1) The proliferation of KMS11 and KMS12 cells was monitored using an IncuCyte devise (Sartorius, Goettingen, Germany; www.essenbioscience.com, accessed on 31 August 2020). Cells (3 × 10^4 per well; 200 µL) were seeded in triplicate in 96 well plates the night prior to the addition of compounds. The IncuCyte was set to collect images from five fields per well at 4-h intervals by using the nuclear dye Nuclight Red (Sartorius). At each timepoint, the number of cells per well was deter- mined by taking the mean of the five locations in each well. The relative proliferation at each timepoint was normalized, with 100% set as the number of cells observed for incubated with DMSO (0.1%) controls at 72 h.

[3] = tested on: KMS12 cells; test: KMS cell proliferation assay (IncuCyte); format: cell-based; settings: 100 µM; 24 to 96 h; cells do not express UCHL1
Protocol: as §1

[4] = target: T1, UCHL5 (Homo sapiens, UniProt Q9Y5K5); test: KMS cell activity-based probe (HA-Ub-VME) assay, HA blot higher exposure; settings: 250 µM, KMS11 cells
T1 sequence (Q9Y5K5 1-245 limits assumed): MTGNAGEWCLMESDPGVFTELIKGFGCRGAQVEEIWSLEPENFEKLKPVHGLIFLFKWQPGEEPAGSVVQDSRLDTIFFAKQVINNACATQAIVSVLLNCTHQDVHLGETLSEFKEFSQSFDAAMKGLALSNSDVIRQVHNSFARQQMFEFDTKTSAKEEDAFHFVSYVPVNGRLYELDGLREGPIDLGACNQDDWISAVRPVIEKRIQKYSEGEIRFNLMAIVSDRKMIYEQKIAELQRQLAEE
Protocol: (§2) To confirm on-target engagement in KMS11 cells, a Ub activity-based probe (ABP) gel-shift assay was employed. Using the hemagglutinin-tagged Ub-vinylmethylester (HA-Ub-VME) ABP to examine the activity of 1 in KMS11 cells, an immunoblot was performed. Cells were treated in dose-response with 1 (0–250 µM), washed with PBS, then lysed and treated with HA-Ub-VME. The HA-Ub-VME labels any remaining DUBs that have not been inhibited by 1.
(§3) Twelve hours prior to the addition of compounds to the cells, 1.2 million KMS11 or KMS12 cells mL^−1 per well were seeded in a 12 well plate. Cells were incubated with inhibitor for 4 h before washing the cells three time with PBS to remove excess compound. Cells were harvested, pelleted, and lysed in 60 µL of lysis buffer (0.5%NP-40 in 50 mM Tris pH 7.4). HA-Ub-VME was then added to a final concentration of 1 µM and incubated for 1 h at room temperature. An equal volume of 2X Laemmli sample buffer was added, and the samples were heated to 95 °C before separating by gel electrophoresis and analyzed by immunoblot.

[5] = target: T2, UCHL3 (Homo sapiens, UniProt P15374); test: KMS cell activity-based probe (HA-Ub-VME) target engagement assay; settings: 0–250 µM, 4 h, UCHL3 immunoblot
T2 sequence (P15374 1-230): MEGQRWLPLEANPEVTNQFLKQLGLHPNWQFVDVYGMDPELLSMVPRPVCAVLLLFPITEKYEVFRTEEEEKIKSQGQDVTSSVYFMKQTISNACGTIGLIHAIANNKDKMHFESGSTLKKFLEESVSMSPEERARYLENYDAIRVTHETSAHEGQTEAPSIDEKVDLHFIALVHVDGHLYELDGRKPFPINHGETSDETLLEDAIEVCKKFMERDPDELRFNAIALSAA
Protocol: as §2, §3

[6] = target: T2, UCHL3; parameters: His (N); made in house; method as in PMID 22617491; settings: concentrations up to 400 µM; cited from earlier work

Row | Structure (SMILES) | proteins labelled in SW1271 cells (Cy5 click, in-gel fluorescence) [1] | proliferation of KMS11 cells compared to DMSO [2] | proliferation of KMS12 cells compared to DMSO [3] | inhibition of DUB corresponding to the molecular weight UCHL5 [4] | HA-Ub-UCHL3 complex formation in KMS11 cells [5] | activity toward UCHL3 [6]
1 | C#Cc1ccc(COC(=O)N[C@H](C(=O)N[C@@H](C)C(=O)N[C@@H](CCC(=O)OC)C(=O)CF)C(C)C)cc1 [Cpd 34] | high selectivity in cells |  |  |  |  | 
2 | COC(=O)CC[C@H](NC(=O)[C@H](C)NC(=O)[C@@H](NC(=O)OCc1ccccc1)C(C)C)C(=O)CF [Cpd 1, benzyloxycarbonyl-Val-Ala-Glu(γ-methoxy)-fluoromethylketone] (Cbz-Val-Ala-Glu(OMe)-CH2F) |  | reduced proliferation; also recorded: anti-proliferative properties | showed reduced growth at the 24-h timepoint but regained proliferative ability at the 96-h timepoint | may also be inhibited | does not inhibit UCHL3 in cells | not possess any activity

— paper PMC7956625, “Optimization and Anti-Cancer Properties of Fluoromethylketones as Covalent Inhibitors for Ubiquitin C-Terminal Hydrolase L1” (Molecules, 2021)
